Converted amounts (≈) assume the structure as drawn.
Tests used:
[1] = system: experimental allergic encephalomyelitis; conditions: in vivo; cited from earlier work
popliteal lymph node = popliteal lymph node (PLN) test procedure, in vivo mixed lymphocyte reaction; design: species or system C3H mice (BALB/c donors)
Experimental: (§1) Immunosuppressive activity was evaluated in an in vitro standard pharmacological test procedure to measure lymphocyte proliferation (LAF) and in two in vivo standard pharmacological test procedures. The first in vivo procedure was a popliteal lymph node (PLN) test procedure which measured the effect of compounds of this invention on a mixed lymphocyte reaction and the second in vivo procedure evaluated the survival time of a pinch skin graft.
A mixed lymphocyte reaction (MLR) occurs when lymphoid cells from genetically distinct animals are combined in tissue culture. Each stimulates the other to undergo blast transformation which results in increased DNA synthesis that can be quantified by the incorporation of tritiated thymidine. Since stimulating a MLR is a function of disparity at Major Histocompatibility antigens, an in vivo popliteal lymph node (PLN) test procedure closely correlates to host vs. graft disease. Briefly, irradiated spleen cells from BALB/c donors are injected into the right hind foot pad of recipient C3H mice. The drug is given daily, p.o. from Day 0 to Day 4. On Day 3 and Day 4, tritiated thymidine is given i.p., b.i.d. On Day 5, the hind popliteal lymph nodes are removed and dissolved, and radioactivity counted. […] Percent suppression is calculated using the non-drug treated animals as allogenic control. […]

Candida albicans = conditions: in vitro and in vivo; cited from earlier work
[2] = alone or in combination with picibanil; cited from earlier work
IgE-like antibodies = conditions: cited from earlier work
[3] = system: pinch skin graft from male DBA/2 donors transplanted to male BALB/c recipients; assay: survival time of pinch skin graft; format: in vivo; conditions: for Skin Graft (days + SD), mean graft survival time: intraperitoneally
Experimental: as §1
The second in vivo test procedure is designed to determine the survival time of pinch skin graft from male DBA/2 donors transplanted to male BALB/c recipients. The method is adapted from Billingham R.E. and Medawar P.B., J. Exp. Biol. 28:385-402, (1951). Briefly, a pinch skin graft from the donor is grafted on the dorsum of the recipient as a homograft, and an autograft is used as control in the same region. […] Untreated recipients serve as rejection control. The graft is monitored daily and observations are recorded until the graft becomes dry and forms a blackened scab. This is considered as the rejection day. The mean graft survival time (number of days ±S.D.) of the drug treatment group is compared with the control group.

transplant rejection = conditions: cited from earlier work
[4] = system: Candida albicans ATCC 10231; assay: antifungal plate test, MIC; format: cell-based; conditions: ATCC10231
Experimental: (§2) The following represents the typical procedure used. Compound to be tested was placed on sterile dried 1/4" plate disks, and allowed to dry. Agar plates were seeded with fungi and allowed to solidify. The impregnated disks were placed on the seeded Agar surface and incubated for the time required for the particular culture. Results are expressed in MIC (μg/ml) to inhibit growth.

[5] = system: Candida albicans ATCC 38246; assay: antifungal plate test, MIC; format: cell-based; conditions: ATCC38246
Experimental: as §2

[6] = system: Candida albicans ATCC 38248; assay: antifungal plate test, MIC; format: cell-based; conditions: ATCC38248
Experimental: as §2

Candida albicans 3669 = assay: antifungal plate test, MIC; format: cell-based
Experimental: as §2

[7] = system: Candida albicans ATCC 38247; assay: antifungal plate test, MIC; format: cell-based; conditions: ATCC38247
Experimental: as §2

CO[C@H]1C[C@@H]2CC[C@@H](C)[C@@](O)(O2)C(=O)C(=O)N2CCCC[C@H]2C(=O)O[C@H]([C@H](C)C[C@@H]2CC[C@@H](O)[C@H](OC)C2)CC(=O)[C@H](C)/C=C(\C)[C@@H](O)[C@@H](OC)C(=O)[C@H](C)C[C@H](C)/C=C/C=C/C=C/1C [Rapamycin]
effectiveness in experimental allergic encephalomyelitis model (in words) [1]: effective in the experimental allergic encephalomyelitis model
PLN (ratio) (popliteal lymph node; p.o. daily Day 0 to Day 4, ratio, rapamycin 1.0): 1.0
antifungal activity (in words) (Candida albicans): antifungal activity, particularly against Candida albicans, both in vitro and in vivo
antitumor activity (in words) [2]: has been shown to have antitumor activity
inhibition of the formation of IgE-like antibodies (in words) (IgE-like antibodies): effectively inhibited the formation of IgE-like antibodies
Skin Graft (days + SD), mean graft survival time [3]: 12.0 ± 1.7 days
inhibition of transplant rejection / immunosuppressive effect (in words) (transplant rejection): effective in inhibiting transplant rejection

CO[C@H]1C[C@@H]2CC[C@@H](C)[C@@](O)(O2)C(=O)C(=O)N2CCCC[C@H]2C(=O)O[C@H]([C@H](C)C[C@@H]2CC[C@@H](OC(=O)[C@H](CCCCNC(=O)OC(C)(C)C)NC(=O)OC(C)(C)C)[C@H](OC)C2)CC(=O)[C@H](C)/C=C(\C)[C@@H](O)[C@@H](OC)C(=O)[C@H](C)C[C@H](C)/C=C/C=C/C=C/1C [Example 12, Rapamycin-42-ester with N^α, N^ε -bis[(1,1-dimethylethoxy)carbonyl]-L-lysine]
effect on T cell proliferation in PLN (in words) (popliteal lymph node; negative ratio): may cause T cell proliferation in the PLN test procedure
Skin Graft (days + SD), mean graft survival time [3]: 12.0 ± 2.0 days
survival time of the skin graft (in words) ([3]; untreated grafts typically rejected within 6-7 days): increased survival time observed in the skin graft test procedure
MIC [4]: 0.2 µg/mL (≈ 0.161 µM)
MIC [5]: > 0.4 µg/mL
MIC [6]: 0.2 µg/mL (≈ 0.161 µM)
MIC (Candida albicans 3669): 0.4 µg/mL (≈ 0.322 µM)
MIC [7]: 0.1 µg/mL (≈ 0.0805 µM)

Reference: US5130307A, “Aminoesters of rapamycin” (American Home Products Corporation, priority 1991, dated 1992)
